Experimental data as given in publication PMC7201279, “Structures of substrate- and product-bound forms of a multi-domain copper nitrite reductase shed light on the role of domain tethering in protein complexes” (IUCrJ, 2020).

Experiments:
Hd 1NES1NiR = target: T1, Hd 1NES1NiR (Hyphomicrobium denitrificans, UniProt N0B9M5); experiment: X-ray crystal structure (nitrite-soaked crystal); format: binding; details: 100 mM NaNO2 soak, pH 5.3; catalytic T2Cu site, side-on, two of three monomers; third monomer holds NO
T1 construct: gene HYPDE_25578; N-terminal cupredoxin-tethered three-domain CuNiR; predicted signal peptide removed; 6xHis-tag cut with TEV; E. coli BL21(DE3), pET-26b(+); Cu-loaded; hexamer (dimer of trimers)
T1 sequence (N0B9M5 38-486): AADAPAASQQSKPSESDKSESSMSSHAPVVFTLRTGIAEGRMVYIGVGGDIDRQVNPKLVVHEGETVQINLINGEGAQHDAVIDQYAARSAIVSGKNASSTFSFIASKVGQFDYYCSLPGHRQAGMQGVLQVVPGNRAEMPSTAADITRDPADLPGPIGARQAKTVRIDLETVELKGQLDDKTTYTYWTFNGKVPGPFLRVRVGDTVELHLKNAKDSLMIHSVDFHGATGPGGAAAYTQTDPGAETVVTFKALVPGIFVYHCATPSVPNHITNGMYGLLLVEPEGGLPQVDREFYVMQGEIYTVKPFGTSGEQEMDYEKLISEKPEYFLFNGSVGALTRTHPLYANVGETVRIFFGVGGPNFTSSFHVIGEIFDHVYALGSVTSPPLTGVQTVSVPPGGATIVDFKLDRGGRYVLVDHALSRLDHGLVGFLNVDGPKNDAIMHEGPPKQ

[1] = target: N-terminal cupredoxin-tethered three-domain copper-containing nitrite reductase from Hyphomicrobium denitrificans strain 1NES1 (Hyphomicrobium denitrificans strain 1NES1); experiment: SEC; HiLoad 16/600 Superdex 200 pg, 100 mM Tris-HCl pH 8.0, 500 mM NaCl, 10% (v/v) glycerol, 1.0 ml/min; mass estimated from a calibration curve of marker proteins

| Compound | X-ray crystal structure (nitrite-soaked crystal) (Hd 1NES1NiR) | stoichiometry N [1] |
| --- | --- | --- |
| O=NO [NO2, nitrite] | The NO2 ^− is bound to the T2Cu in a side-on conformation |  |
| N-terminal cupredoxin-tethered three-domain copper-containing nitrite reductase from Hyphomicrobium denitrificans strain 1NES1 (enzyme) |  | 6 |
